Data on nine compounds can be found in patent US8022056B2, “Compositions and methods for the treatment of cancer” (Tautatis, Inc, priority 2006, dated 2011).

The subject of series [1] is target kinases versus GSK3, PKC and PKA. In words: Kinase potency and selectivity profile under identical kinase assay conditions. It is filed as biochemical. The source says: Relative to the compounds disclosed in WO00/01699 and WO04/048384, compounds of the structural formula 1-4 have a higher degree of selectivity in favor of several antiproliferative kinases, as exemplified for the representative compound 1 and directly related compounds 7 of WO04/048384 and 8-9 of WO00/01699, containing the general scaffold of 10, respectively.

The target of the next series is CDK1 (Homo sapiens, UniProt P06493). Nature of the series: Kinase inhibition under standard conditions, CDK1. Type of series: biochemical.
Chain of CDK1 (P06493 whole entry, species assumed): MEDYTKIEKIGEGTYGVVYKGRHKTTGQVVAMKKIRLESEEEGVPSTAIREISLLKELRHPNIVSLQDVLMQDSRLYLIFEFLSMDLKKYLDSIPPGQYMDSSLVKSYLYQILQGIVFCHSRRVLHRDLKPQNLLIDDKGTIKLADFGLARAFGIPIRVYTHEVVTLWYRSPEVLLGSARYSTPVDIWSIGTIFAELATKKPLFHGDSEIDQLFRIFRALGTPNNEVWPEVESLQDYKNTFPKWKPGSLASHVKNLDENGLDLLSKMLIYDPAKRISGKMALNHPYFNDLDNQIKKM
Chain of CDK1 (P14635 whole entry partner, species assumed): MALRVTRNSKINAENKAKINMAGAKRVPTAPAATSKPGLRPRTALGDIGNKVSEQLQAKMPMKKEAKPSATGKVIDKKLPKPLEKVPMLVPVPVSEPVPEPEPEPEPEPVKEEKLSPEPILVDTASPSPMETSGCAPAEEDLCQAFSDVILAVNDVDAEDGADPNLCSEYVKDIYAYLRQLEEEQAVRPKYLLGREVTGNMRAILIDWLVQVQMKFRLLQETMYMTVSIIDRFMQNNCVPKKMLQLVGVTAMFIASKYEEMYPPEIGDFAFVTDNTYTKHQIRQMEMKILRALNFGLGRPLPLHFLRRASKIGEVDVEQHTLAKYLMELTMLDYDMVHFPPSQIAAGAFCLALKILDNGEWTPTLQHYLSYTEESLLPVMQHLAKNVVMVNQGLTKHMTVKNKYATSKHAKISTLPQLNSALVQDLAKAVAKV
The target in a further series is PKA. Nature of the series: Kinase inhibition under standard conditions, PKA. Type of series: biochemical.
The test system of series [2] is HT29 colon cancer cell line. In words: Long-term growth inhibition, crystal violet staining. Type of series: cell-based, human. The settings on record: 10 nM. As to the method:
(§1) For proliferation assays tumor cell suspensions (100 μl/well) were seeded into 96-well flat bottomed microtitration plates at a density of ca. 15 cells/microscopic field (magnification 320×). After 2-3 days the culture medium was removed by suction and replaced by fresh medium (200 μl/well) containing varying concentrations of the compound of the formula 1 or vehicle (0.5% DMSO). Compound 1 was added as […] concentrated feed solutions. On every plate 16 wells served as controls and 16 wells were used per concentration of 1. After various times of incubation the cells were fixed with glutardialdehyde and stored in a refrigerator. At the end of the assay all plates were processed simultaneously (staining with 0.02% aqueous crystal violet solution (100 μl/well). Excess dye was removed by rinsing the trays with water for 20 min. The stain bound by the cells was redissolved in 70% ethanol (180 μl/well) while shaking the microplates for about 3 hours. Absorbance (proportional to cell mass) was measured at 578 nm using a BIOTEK 309 Autoreader. The results (mean values±standard deviation) were plotted as growth curves.
The HT29 human colon cancer cell line (obtained from ATCC, Rockville, USA) was cultured as above. Treatment with the compound of the formula 1 and analysis of growth inhibition was performed analogous to Example 3.

The test system of series [3] is MDA-MB-231 breast cancer cell line. The description is as above. Type of series: cell-based, human. As to the method: The human estrogen receptor and EGF receptor negative MDA-MB-231 (HTB 26) breast cancer cell line (obtained from ATCC, Rockville, USA) were cultured in McCoy's 5A medium containing L-glutamine, 2.2 g/l NaHCO3 and 5% fetal calf serum. Cells were maintained in a water saturated atmosphere (95% air/5% carbon dioxide) at 37° C. in 75-cm^2 culture flasks, and were serially passaged following trypsinization using 0.05% trypsin/0.02% EDTA.
as §1

Another series concerns the target PKC. In words: Kinase inhibition under standard conditions, PKC. Type of series: biochemical.
Another series has as its target ERK2 (Homo sapiens, UniProt P28482). In words: Kinase inhibition under standard conditions, ERK2. It is filed as biochemical.
The subject of series [4] is U373 glioblastoma cell line. In words: Long-term growth inhibition, crystal violet staining. Type of series: cell-based, human. The settings on record: U373, over a week. As to the method: as §1
The EGF-receptor independent U373 Human Glioblastoma cell line (obtained from ATCC, Rockville, USA) was cultured as above. Treatment with the compound of the formula 1 and analysis of growth inhibition was performed analogous to Example 3.

The next series addresses GSK3. Nature of the series: Kinase inhibition under standard conditions, GSK3. Type of series: biochemical.
The conditions of series [5]: Propper et al.; cited from earlier work.
Series [6] has as its system breast cancer tumor cell lines. Particulars: large panel, Konecny et al.; cited from earlier work.

Chain of ERK2 (P28482 whole entry, species assumed): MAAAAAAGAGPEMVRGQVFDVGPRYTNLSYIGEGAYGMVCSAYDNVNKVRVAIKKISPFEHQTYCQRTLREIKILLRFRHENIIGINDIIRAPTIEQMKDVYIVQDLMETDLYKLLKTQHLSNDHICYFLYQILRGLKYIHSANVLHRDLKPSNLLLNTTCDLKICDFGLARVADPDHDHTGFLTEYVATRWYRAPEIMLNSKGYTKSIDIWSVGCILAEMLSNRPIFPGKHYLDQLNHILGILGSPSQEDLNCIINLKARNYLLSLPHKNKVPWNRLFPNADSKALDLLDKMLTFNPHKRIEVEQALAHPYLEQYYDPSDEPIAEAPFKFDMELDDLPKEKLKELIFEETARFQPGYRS

With `C[C@]12O[C@H](C[C@]1(N)C(N)=O)n1c3ccccc3c3c4c(c5c6ccccc6n2c5c31)CNC4=O` [Compound 2], in series [1], the “potency and selectivity profile compared with 1” value (“potency and selectivity profile” below) is “virtually identical potency and selectivity profile as 1”.

For the compound `CNC(=O)[C@@]1(N)C[C@H]2O[C@]1(C)n1c3ccccc3c3c4c(c5c6ccccc6n2c5c31)C(=O)NC4=O` [Compound 3], in series [1], the “potency and selectivity profile” value is “virtually identical potency and selectivity profile as 1”.

Regarding `C[C@]12O[C@H](C[C@]1(N)C(N)=O)n1c3ccccc3c3c4c(c5c6ccccc6n2c5c31)C(=O)NC4=O` [Compound 4], the “potency and selectivity profile” value in series [1] was “virtually identical potency and selectivity profile as 1”.

Consider `COC(=O)[C@@]1(N)CC2OC1(C)n1c3ccccc3c3c4c(c5c6ccccc6n2c5c31)C(=O)NC4` (some centres unmarked) [Compound 6], for which the IC50 (as a rule, the point on the concentration scale where inhibition reaches its midpoint) against CDK1 is 650 nM; at PKA it was more than 10000 nM; on PKC, more than 10000 nM; against ERK2, 870 nM; against GSK3 it was more than 10000 nM. Besides, the “proliferation of HT29 cells” value in series [2] is recorded as “completely ineffective”. Moreover, in [3] (10 nM, 1 week of exposure), the “growth of MDA-MB-231 cells” value is recorded as “virtually ineffective”. Moreover, the “concentration required for a similar effect as 10 nM of 1” value is recorded as “ten-fold higher concentration” in [3] (MDA-MB-231, 1 week) and “ten-fold higher concentration” in series [4].

`CNC(=O)[C@@]1(N)CC2CC1n1c3ccccc3c3c4c(c5c6ccccc6n2c5c31)C(=O)NC4` (some centres unmarked) [Compound 7]: the IC50 is 180 nM against CDK1; 440 nM against PKA; 260 nM against PKC; 600 nM against ERK2; 350 nM against GSK3.

On to `CNC(=O)[C@@]1(O)CC2CC1n1c3ccccc3c3c4c(c5c6ccccc6n2c5c31)C(=O)NC4=O` (some centres unmarked) [Compound 8], for which the IC50 against CDK1 came to 63 nM; against PKA it was 78 nM; on PKC it was 120 nM; at ERK2 it was 120 nM; on GSK3, 37 nM.

Take `CNC(=O)[C@@]1(O)CC2CC1n1c3ccccc3c3c4c(c5c6ccccc6n2c5c31)C(=O)NC4` (some centres unmarked) [Compound 9]: the IC50 was determined as 110 nM against CDK1; 550 nM against PKA; 210 nM on PKC; 480 nM against ERK2; 400 nM against GSK3.

As for `CO[C@@H]1[C@H](N(C)C(=O)c2ccccc2)C[C@H]2O[C@]1(C)n1c3ccccc3c3c4c(c5c6ccccc6n2c5c31)C(=O)NC4` [PKC-412], the human serum binding entry in series [5] is recorded as “extreme human serum binding”.

With `CS(=O)(=O)CCNCc1ccc(-c2ccc3ncnc(Nc4ccc(OCc5cccc(F)c5)c(Cl)c4)c3c2)o1` [Tykerb], in [6], the “share of breast cancer tumor cell lines with growth inhibitory activity” value was “about 20%”.
